Results: paper PMC12470768, “Mentha rotundifolia, a Source of Amoebicidal Agents Against Naegleria fowleri” (International Journal of Molecular Sciences, 2025)

Columns and labels:
N. fowleri trophozoites [1] = experiment: Intracellular ATP levels (CellTiter-Glo); format: cell-based, Naegleria fowleri; details: treated with IC90, 24 h; negative control set as 100% ATP
Experimental: (§1) To evaluate the induction of PCD, N. fowleri strains ATCC® 30808™ and ATCC® 30215™ were treated with the IC90 concentration of the compounds 7 and 10 for 24 h at 37 °C. After incubation, specific fluorescent markers were used to assess various detectable metabolic events, following the manufacturers’ instructions for each assay. Amphotericin B was used as a positive control, and untreated amoebae served as a negative control. Fluorescence imaging was performed using EVOS M5000 Cell Imaging System (Life Technologies, Madrid, Spain) and confocal microscope Leica DMI 4000 B equipped with Leica Application Suite X software version 3.5.5.19976 and Leica HC PL APO 63x/1.40 OIL CS2 objective (Leica Microsystems, Wetzlar, Germany). The fluorescence obtained was expressed as mean ± standard deviation from at least three independent experiments.
Adenosine triphosphate (ATP) production was quantified using the CellTiter-Glo® luminescent cell viability assay (Promega, Madrid, Spain). Amoebae were treated with the compounds, and an equal volume of reagent was added per well. Following cell lysis, the emitted luminescence, which is directly proportional to ATP content, was measured using the EnSpire® Multimode Plate Reader (PerkinElmer, Madrid, Spain). […]

N. fowleri trophozoites [2] = experiment: Intracellular reactive oxygen species (CellROX Deep Red); format: cell-based, Naegleria fowleri; details: IC90, 24 h; compound 7 on ATCC 30808 (p < 0.05), compound 10 on ATCC 30215 (p < 0.01)
Experimental: as §1
The oxidative stress induced by the generation of ROS in N. fowleri was evaluated using the CellROX® Deep Red reagent (Invitrogen, Thermo Fisher Scientific, Madrid, Spain). Following incubation, cells were stained with the dye at a final concentration of 5 μM and then incubated for an additional 30 min. The reagent enters cells in response to elevated ROS levels, emitting red fluorescence at approximately 644/665 nm. Increased fluorescence intensity indicated higher levels of ROS accumulation, reflecting elevated oxidative stress in the treated cells.

[3] = system: N. fowleri ATCC® 30808™ trophozoites; experiment: In vitro amoebicidal activity against N. fowleri trophozoites (alamarBlue), strain ATCC 30808; format: cell-based, Naegleria fowleri
Experimental: The in vitro activity of the tested compounds against Naegleria fowleri trophozoites was evaluated using two clinical strains obtained from the American Type Culture Collection (ATCC® 30808™ and ATCC® 30215™). Trophozoites were cultured axenically at 37 °C in 2% (w/v) Bactocasitone medium (Thermo Fisher Scientific, Madrid, Spain), supplemented with 10% (v/v) fetal bovine serum (FBS), […] penicillin G sodium salt, and 0.5 mg/mL streptomycin sulfate (Sigma-Aldrich, Madrid, Spain). For cytotoxicity assessment, murine macrophages from the J774A.1 cell line (ATCC® TIB-67) were cultured in Dulbecco’s Modified Eagle’s Medium (DMEM) supplemented with 10% (v/v) FBS and 10 μg/mL gentamicin sulfate (Sigma-Aldrich, Madrid, Spain). The macrophages were maintained at 37 °C in a 5% CO2 atmosphere.
The trophocidal activity of the compounds was evaluated using the alamarBlue® colorimetric assay. N. fowleri trophozoites were seeded in duplicate in a 96-well microtiter plate at a concentration of 2 × 10^5 cells/mL and incubated for adhesion in Bactocasitone medium (2% v/w) (Thermo Fisher Scientific, Madrid, Spain), supplemented with 10% (v/v) fetal bovine serum (FBS), 0.3% penicillin G sodium salt, and 0.5 mg/mL streptomycin sulfate (Sigma-Aldrich, Madrid, Spain). Different concentrations of the evaluated compounds, prepared in fresh Bactocasitone medium, were added to the wells (50 µL per well). The negative control consisted of trophozoites incubated with the medium alone. After adding 10 µL of alamarBlue® reagent, the plates were incubated at 37 °C for 48 h with slight agitation. The data were analyzed using nonlinear regression with GraphPad Prism 9 software to determine the IC50 and IC90 values, which were then used for further studies on PCD [10].

[4] = system: N. fowleri ATCC® 30215™ cyst stage; experiment: In vitro cysticidal activity against N. fowleri cysts (alamarBlue), strain ATCC 30215; format: cell-based; details: Naegleria fowleri, ATCC30215, mean ± SD
Experimental: Following the assays against trophozoites, the compounds were further evaluated for their activity against the cyst stage of N. fowleri (ATCC® 30808™ and ATCC® 30215™). To induce cyst formation, the trophozoites were centrifuged, resuspended in MYAS medium, and incubated under slight agitation at room temperature for 10 days. After this, mature cysts were harvested, pretreated with 0.5% SDS, and seeded in a 96-well microtiter plate at 2 × 10^5 cells/mL. The drugs were tested in serial dilutions, and after 24 h of incubation at 37 °C, the medium was replaced with fresh Bactocasitone medium. The colorimetric alamarBlue® assay was used to assess cyst viability, with 10 µL of reagent added to each well. The plates were incubated for an additional 72 h at 37 °C, and fluorescence was measured using the EnSpire® Multimode Plate Reader (PerkinElmer, Madrid, Spain). The results were compared to a negative control (untreated cysts) and a positive control (amphotericin B and miltefosine). The IC50 values were determined through nonlinear regression analysis.

N. fowleri trophozoites [5] = experiment: Plasma membrane permeability (SYTOX Green); format: cell-based, Naegleria fowleri; details: IC90, 24 h; compound 7 on ATCC 30808, compound 10 on ATCC 30215, amphotericin B on both
Experimental: as §1
After treatment, SYTOX™ Green nucleic acid stain (Life Technologies, Madrid, Spain) was added to each well at a final concentration of 1 μg/mL and incubated for 15 min in the dark. […] In contrast, viable cells with intact membranes exclude the dye and remain non-fluorescent. Untreated trophozoites were used as negative controls.

N. fowleri trophozoites [6] = experiment: Chromatin condensation (Hoechst 33342 / propidium iodide staining); format: cell-based, Naegleria fowleri; details: IC90, 24 h
Experimental: as §1
To evaluate the chromatin condensation, cells were stained with Hoechst 33,342 (1 µM) and propidium iodide (PI) (1 µM) for 20 min in the dark. Hoechst 33,342 binds to condensed chromatin in apoptotic cells and emits blue fluorescence, while PI enters cells with compromised membranes, indicative of late apoptosis or necrosis, and binds to DNA, emitting red fluorescence. […] Untreated cells were included as negative controls to establish baseline fluorescence levels.

N. fowleri trophozoites [7] = experiment: Autophagic vacuole formation (monodansylcadaverine); format: cell-based, Naegleria fowleri; details: IC90, 24 h
Experimental: as §1
Autophagy is a vital cellular process involved in the degradation and recycling of intracellular components, often activated in response to drug exposure. To evaluate autophagic activity, trophozoites were stained with monodansylcadaverine (MDC) (Sigma-Aldrich, St. Louis, MO, USA) during 30 min in the dark. […] The dye emits a characteristic cyan-blue fluorescence, allowing the detection and qualitative analysis of autophagic vacuoles in treated cells.

COC(=O)[C@]12CC[C@@H](C)[C@H](C)C1C1=CCC3[C@@]4(C)CC[C@H](OC(=O)CCC(=O)O)C(C)(C)C4CC[C@@]3(C)[C@]1(C)CC2 (stereo partly shown) [Compound 7, 3-O-(Hemisuccinyl)-methyl ursolate]
inhibition of ATP levels compared to the negative control (N. fowleri trophozoites [1]): 89.5% | intracellular ROS accumulation (CellROX Deep Red) (N. fowleri trophozoites [2]): significantly increased ROS | IC50 ([3]; Naegleria fowleri, ATCC30808, 48 h, trophozoite stage, 48 h, mean ± SD): 28.7 ± 1.8 µM | IC90 ([3]; Naegleria fowleri, ATCC30808, trophozoites, compound 7 used on ATCC 30808 (Figure 8 legend)): 39.5 µM | N. fowleri ATCC 30808 SI (CC50/IC50) ([3]; trophozoite stage, selectivity index vs murine macrophages J774): >6.11 | IC50 [4]: 28 ± 1.59 µM | plasma membrane integrity (SYTOX Green fluorescence) (N. fowleri trophozoites [5]): significant membrane disruption | propidium iodide (red) fluorescence (N. fowleri trophozoites [6]; compound 7 on ATCC 30808): strong red fluorescence | chromatin condensation (Hoechst 33342 fluorescence) (N. fowleri trophozoites [6]; compound 7 on ATCC 30808, compound 10 on ATCC 30215, amphotericin B on both): clear chromatin condensation | autophagic vesicles (MDC staining) (N. fowleri trophozoites [7]): autophagosome formation
